Entries after “also recorded” stand apart in the source; their conditions may differ. Numbered stars: 1 amine (or outer) side, 2 acyl side, 3 side chain; on linkers, the order of the positions; unused ones are H or OH. Bridge positions count the residues as written; N and C are the ends. Square brackets hold non-standard residues; d marks the D form. Ends that are not written are not given here. Peptide text beside a SMILES is read from it. X1 = CC(=O)NC(C(=O)OC(C(C)C)C(N[*:1])C(=O)[*:2])C(O)C(C)C; rhodamine red = Rhodamine red fluorescent dye; PhLac = O=C(O)[CH](O)Cc1ccccc1; NMeT = CN[CH](C(=O)O)[CH](C)O; NMeA = CN[CH](C)C(=O)O; NMeDha = C=C(NC)C(=O)O
What was measured:
BNGR-A21 (BmCrzR) [1] = assay: intracellular calcium measurement (fura-2) in HEK293 cells; type: cell-based, Bombyx mori; details: pretreatment with YM-254890 1 μM, U73122 10 μM, EGTA 5 mM, BAPTA-AM 50 μM or nifedipine 10 μM, corazonin (1 μM with YM-254890)
Description: (§1) The stable FLAG-A21- and BmFlag-A21-expressing HEK293 and Sf21 cells were washed twice with phosphate-buffered saline and resuspended at 5 × 10^6 cells/ml in Hanks' balanced salt solution. The cells were detached by a Nonenzymatic Cell Dissociation Solution (M&C Gene Technology, China) or 0.02% EGTA and then loaded with 3 μM Fura 2-AM (Dojindo Laboratories, Japan) for 30 min at 37 °C. Cells were washed twice in Hanks' solution and then resuspended in Hanks' solution at a concentration of 3 × 10^7 cells/ml. Calcium flux was measured using excitation wavelengths of 340 and 380 nm in a fluorescence spectrometer (Tecan Infinite 200 PRO, Switzerland).
(§2) FIGURE 4. Intracellular Ca^2+ influx. HEK293 (A) and Sf21 (B) cells, respectively, transfected with FLAG-A21 and BmFlag-A21 were measured in response to different concentrations of corazonin peptide using the fluorescent Ca^2+ indicator fura-2. C, effect of pretreatment of the Gq inhibitor on corazonin (1 μM)-mediated Ca^2+ influx in HEK293 cells. D, effects of pretreatment of calcium chelators (EGTA, 5 mM, and BAPTA-AM, 50 μM) and L-calcium channel (nefidipine, 10 μM) inhibitors on corazonin-mediated Ca^2+ influx in HEK293 cells. Effect of pretreatment of PLC inhibitor (U73122, 10 μM) on corazonin-mediated Ca^2+ influx in HEK293 (E) and Sf21 (F) cells. The figures are representative of more than three independent experiments.

BNGR-A21 (BmCrzR) [2] = type: cell-based, Bombyx mori
BmCrzR (BNGR-A21) [3] = assay: ERK1/2 activation assay in HEK293 cells stably expressing BmCrzR; type: cell-based, Bombyx mori; details: HEK293 cells stably transfected with BmCrzR; 1 h pretreatment (H89 10 μM, Go6983 10 μM, U0126 1 μM), then corazonin 1 nM, 5 min
BNGR-A21 (BmCrzR) [4] = assay: intracellular calcium measurement (fura-2) in Sf21 cells; type: cell-based, Bombyx mori; details: pretreatment with U73122 10 μM
Description: as §1, §2

[5] = target: Bombyx neuropeptide G protein-coupled receptor A21 (BNGR-A21), N-terminal FLAG tag (Bombyx mori) (UniProt B3XXN4); assay: fluorescent ligand competition binding on whole cells; HEK293 cells stably expressing FLAG-A21 in poly-D-lysine-coated 96-well plates; labeled ligand (Rho-[Lys^4]BmCrz) with buffer or unlabeled ligand in PBS with 0.2% BSA, room temperature 90 min, washed with ice-cold PBS with 0.1% BSA; fluorescence intensity as percentage of total binding
Sequence of Bombyx neuropeptide G protein-coupled receptor A21 (BNGR-A21), N-terminal FLAG tag (Bombyx mori) (B3XXN4 entry or part of it): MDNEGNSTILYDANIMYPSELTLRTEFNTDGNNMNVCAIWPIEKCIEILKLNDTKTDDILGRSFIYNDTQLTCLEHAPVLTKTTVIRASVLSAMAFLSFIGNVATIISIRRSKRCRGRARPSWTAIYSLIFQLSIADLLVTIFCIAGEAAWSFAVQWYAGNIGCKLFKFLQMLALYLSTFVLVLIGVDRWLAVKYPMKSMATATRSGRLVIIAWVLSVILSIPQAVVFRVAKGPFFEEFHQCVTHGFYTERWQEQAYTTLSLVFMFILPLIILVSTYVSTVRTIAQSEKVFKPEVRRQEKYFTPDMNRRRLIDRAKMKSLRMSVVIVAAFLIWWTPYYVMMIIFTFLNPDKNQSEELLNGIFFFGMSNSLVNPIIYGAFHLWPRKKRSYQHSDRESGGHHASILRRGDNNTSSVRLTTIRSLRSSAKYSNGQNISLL

[6] = target: Bombyx neuropeptide G protein-coupled receptor A21 (BNGR-A21), N-terminal FLAG tag (Bombyx mori) (UniProt B3XXN4)
[7] = target: Bombyx neuropeptide G protein-coupled receptor A21 (BNGR-A21), N-terminal FLAG tag (Bombyx mori) (UniProt B3XXN4); remark: listed apart in the source
BmCrzR (BNGR-A21) [8] = assay: CRE-driven luciferase assay of rhodamine-labeled corazonin; type: cell-based, Bombyx mori; details: Fig. 5A; CRE-driven luciferase system; rhodamine red-labeled peptide; read-out: activation of BmCrzR (CRE-driven luciferase), EC50
Description: After seeding in a 48-well plate overnight, HEK293 or Sf21 cells transiently or stably cotransfected with BNGR-A21 and pCRE-Luc were grown to 90–95% confluence, stimulated with the corazonin peptides in DMEM without FBS, and incubated for 4–6 h at 37 °C. Luciferase activity was detected by a firefly luciferase assay kit (KenReal, Shanghai, China). The cAMP concentration was assessed using a commercially available cAMP detection kit (R&D Systems).
All results are expressed as the mean ± S.E. Data were analyzed using nonlinear curve fitting (GraphPad Prism version 5.0) to obtain EC50 values. Statistical significance was determined using Student's t test. Probability values that were less than or equal to 0.05 were considered significant.
FIGURE 5. Direct interaction of BNGR-A21 with corazonin. A, rhodamine red-labeled [Lys^4]corazonin activity was assayed using the CRE-driven luciferase system. B, binding of Rho-[Lys^4]BmCrz to BNGR-A21 expressed in HEK293 cells was measured in the presence of different concentrations of unlabeled peptides or in the absence of unlabeled peptides (total binding). The extent of binding was determined by fluorescence intensity and is presented as a percentage of the total binding. The results represent the mean ± S.D. (n = 3).

[9] = target: Bombyx neuropeptide G protein-coupled receptor A21 (BNGR-A21), N-terminal FLAG tag (Bombyx mori) (UniProt B3XXN4); remark: listed apart in the source
CrzR in A. gambiae = test system: CrzR in A. gambiae; set-up: method as in PMID 16616003; details: cited from earlier work

For CC(=O)OCOC(=O)CN(CC(=O)OCOC(C)=O)c1ccccc1OCCOc1ccccc1N(CC(=O)OCOC(C)=O)CC(=O)OCOC(C)=O [BAPTA-AM], the “effect of inhibitor on corazonin-mediated Ca^2+ mobilization” value (“effect of inhibitor” for short) (BNGR-A21 (BmCrzR) [1]) was “sensitive; also recorded: partially impaired” and the “inhibition of BmCrz-induced luciferase activity” value (“inhibition” below) (BNGR-A21 (BmCrzR) [2]) was “significantly inhibited”.

In the case of O=C(O)CN(CCOCCOCCN(CC(=O)O)CC(=O)O)CC(=O)O [EGTA], the “effect of inhibitor” value (BNGR-A21 (BmCrzR) [1]) is reported as “sensitive; also recorded: partially impaired” and the “inhibition” value (BNGR-A21 (BmCrzR) [2]) is reported as “significantly inhibited”.

For COc1ccc2c(c1)c(C1=C(c3c[nH]c4ccccc34)C(=O)NC1=O)cn2CCCN(C)C [Go6983], the “inhibition” value (BNGR-A21 (BmCrzR) [2]) was “significantly inhibited” and the “block of BmCrzR-mediated activation of ERK1/2” value (from here on “block”) (BmCrzR (BNGR-A21) [3]) was “significantly blocked; also recorded: significantly inhibited”.

With O=S(=O)(NCCNC/C=C/c1ccc(Br)cc1)c1cccc2cnccc12 [H89] the “inhibition” value (BNGR-A21 (BmCrzR) [2]) was “significantly inhibited; also recorded: sensitive” and the “block” value (BmCrzR (BNGR-A21) [3]) was “significantly blocked; also recorded: significantly inhibited”.

With N#CC(=C(/N)Sc1ccccc1N)/C(C#N)=C(/N)Sc1ccccc1N [U0126] the “block” value (BmCrzR (BNGR-A21) [3]) was “significantly blocked; also recorded: significantly inhibited”.

In the case of COc1ccc2c(c1)CC[C@@H]1[C@@H]2CC[C@]2(C)[C@@H](NCCCCCCN3C(=O)C=CC3=O)CC[C@@H]12 [U73122], the “effect of inhibitor” value (BNGR-A21 (BmCrzR) [1]) is reported as “sensitive; also recorded: significantly blocked”, the “inhibition” value (BNGR-A21 (BmCrzR) [2]) is reported as “significantly inhibited” and the “effect of inhibitor” value (BNGR-A21 (BmCrzR) [4]) is reported as “sensitive”.

For C=C1C(=O)NC(C)C(=O)N(C)C(C)C(=O)NC(C(OC(=O)C(NC(C)=O)C(O)C(C)C)C(C)C)C(=O)N(C)C(C(C)OC)C(=O)OC(C)C(NC(C)=O)C(=O)OC(Cc2ccccc2)C(=O)N1C (centres unmarked) [YM-254890] (Ac-T[PhLac][NMeDha]A[NMeA][X1][NMeT](Me); ester 1-C; configuration not given here), the “effect of inhibitor” value (BNGR-A21 (BmCrzR) [1]) was “significant decrease in the intracellular Ca^2+ mobilization; also recorded: significantly blocked” and the “inhibition” value (BNGR-A21 (BmCrzR) [2]) was “significantly inhibited; also recorded: sensitive”.

With COC(=O)C1=C(C)NC(C)=C(C(=O)OC)C1c1ccccc1[N+](=O)[O-] [nifedipine] the “effect of inhibitor” value (BNGR-A21 (BmCrzR) [1]) was “sensitive; also recorded: partially impaired”.

Compound “Bombyx mori corazonin ([Arg^7]corazonin) (peptide)” has an IC50 [5] of 0.49 nM, a CRE-driven luciferase reporter (cAMP accumulation), dose response to corazonin, HEK293 cells co-transfected with FLAG-A21/CRE-Luc; EC50 [6] of 4.5 nM and a CRE-driven luciferase reporter (cAMP accumulation), dose response to corazonin, Sf21 cells co-transfected with FLAG-A21/CRE-Luc; EC50 [6] of 1 nM. It also gave an ERK1/2 phosphorylation (Western blot), dose response to corazonin, HEK293 cells stably expressing BmCrzR; EC50 [7] of 1.4 nM and an ERK1/2 phosphorylation (Western blot), dose response to corazonin, Sf21 cells expressing BmCrzR; EC50 [7] of 4.7 nM.

In the case of “Rho-[Lys^4]BmCrz: Q4K peptide conjugated with rhodamine red at the Lys residue (QTFK(rhodamine red)YSRGWTN; ends and bridges not checked; UniProt Q86N75 20-30, looked up, variant Q4K)”, the EC50 (BmCrzR (BNGR-A21) [8]) is reported as 86.1 nM.

With “Rhodamine red-labeled [Lys^4]BmCrz (peptide)” the CRE-driven luciferase reporter; EC50 [9] was 86.1 nM.

With cholera toxin [CTX] the “effect of stimulation with CTX on cellular levels of cAMP” value (BNGR-A21 (BmCrzR) [2]) was “remarkable increase in the cellular levels of cAMP”.

For “endogenous corazonin: endogenous corazonin of A. gambiae (ref 22) (QTFQYSRGWTN; ends and bridges not checked; UniProt A0NDK8 21-31, looked up)”, the “selectivity of A. gambiae CrzR activation” value (CrzR in A. gambiae) is listed as “only be activated by its endogenous corazonin” and the EC50 (CrzR in A. gambiae; read-out: activation of A. gambiae CrzR (cAMP accumulation), EC50) is listed as 4 nM.

With pertussis toxin [PTX] the “effect of pretreatment on corazonin-stimulated cAMP generation” value (BNGR-A21 (BmCrzR) [2]) was “no effect on cAMP generation; also recorded: PTX-insensitive”.
